Measured values reported in patent publication US7314729B2, “Methods and kits for transferases” (Promega Corp., priority 2002, dated 2008).

How the values were obtained:
Assay type in all cases: biochemical
[1] = target: T1, catalytic subunit of cAMP-dependent protein kinase (PKA) (Bos taurus, UniProt P00517); assay: PKA kinase assay with inhibitors (bis-kemptide R110 substrate, Aminopeptidase M, fluorescence); conditions: 0.5 units PKA, 5 μM bis-kemptide, 50 μM ATP; FIG. 2
T1 construct: purchased Promega Corp., Madison, Wis
Experimental: The kinase activity of the catalytic subunit of cAMP-dependent protein kinase (PKA) from Promega Corp., Madison, Wis. was tested in triplicate in a 96-well plates using the following reaction components: 40 mM Tris-HCl, pH 7.5, 20 mM MgCl2, 0.1 mg/ml bovine serum albumin (BSA), 50 μM ATP, and 5 μM of LRRASLG (SEQ. ID. NO: 1)-R110—GLSARRL, a bis-rhodamine peptide kinase substrate also known as “bis-kemptide.” The final reaction volume was 50 uL. […] All kinase reactions were incubated at room temperature for 20 minutes.
The kinase reactions were terminated by adding a termination/detection reagent (25 ul) containing 100 mM EDTA and 25 mU aminopeptidase M (Calbiochem, San Diego, Calif.).
Enzymatic activity of the kinase was measured by taking a reading of the fluorescence, at the time of addition of actinonin and 3 hrs later to test the stability of the signal, with an excitation at 480 nm and fluorescence emission at 520-530 nm.
PKA Assay With Inhibitors. The effects of various inhibitors of PKA kinase were tested.
Fluorescence was detected with an excitation of 480 nm and fluorescence emission at 520-530 nm.

[2] = target: T2, tyrosine phosphatase PTP-1B (Homo sapiens, UniProt P18031); assay: PTP-1B phosphatase assay with inhibitors (bis-PTK5p-R110 phosphopeptide, Aminopeptidase M); conditions: 25 mU/well PTP-1B, inhibitor zero up to 50 uM; FIG. 10
T2 sequence (P18031 1-435): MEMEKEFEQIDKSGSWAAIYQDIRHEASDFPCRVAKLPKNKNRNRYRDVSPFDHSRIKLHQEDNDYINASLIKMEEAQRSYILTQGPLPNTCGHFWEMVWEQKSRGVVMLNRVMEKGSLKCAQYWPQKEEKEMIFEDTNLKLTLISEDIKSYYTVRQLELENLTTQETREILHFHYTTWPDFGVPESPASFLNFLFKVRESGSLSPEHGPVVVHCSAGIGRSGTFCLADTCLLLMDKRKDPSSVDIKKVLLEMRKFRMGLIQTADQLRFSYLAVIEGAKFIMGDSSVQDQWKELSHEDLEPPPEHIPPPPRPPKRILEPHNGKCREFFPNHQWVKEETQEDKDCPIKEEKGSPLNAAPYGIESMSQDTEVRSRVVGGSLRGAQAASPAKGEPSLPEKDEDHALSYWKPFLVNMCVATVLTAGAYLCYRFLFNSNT
Experimental: The effect of various inhibitors were tested on the dephosphorylation of bis-PTK5p-R110 by the enzyme tyrosine phosphatase PTP-1B. […] Inhibitors were included in the reactions at concentrations ranging from zero inhibitor up to 50 uM. Phosphatase reactions were initiated by adding PTB-1B, which was added to each reaction at 25 mU/well. Control reactions containing no enzyme were also run.
Phosphatase reactions were terminated with 25 ul of a solution of Na3VO4 and 25 mU/well of Aminopeptidase M. Reactions were incubated at room temperature for 60 minutes.

[3] = target: T3, serine/threonine phosphatase PP2A (Homo sapiens, UniProt P67775); assay: PP2A phosphatase assay with inhibitors (bis-STP-R110 phosphopeptide, Aminopeptidase M)
T3 construct: purchased Promega (Madison, Wis.)
Experimental: PP2A activity with STP-R-110. The phosphatase activity of phosphatase 2A (PP2A) was carried out in 50 ul volume containing 5 uM of phosphopeptide substrate bis-STP-R110 (RRAT(PO3)VA (SEQ. ID. NO:5)-R110-[…]), 40 mM Tris-HCl, pH 7.5, and 0.1 mg/ml BSA. Phosphatase reactions were initiated by adding the enzyme serine/threonine phosphatase PP2A from Promega (Madison, Wis.). The amount of PP2A added to each reaction was titrated in ½ increments, in a range from 0.0075 ng (0.015 munits) to 7.5 nanograms (15 munits), plus control reactions containing no enzyme. Phosphatase reactions were carried out for 10 minutes at room temperature in 96-well plates.
Phosphatase reactions were terminated with 25 ul of 2 uM okadaic acid ((9,10-Deepithio-9,10-didehydroacanthifolicin) (sodium salt)), a known inhibitor of PP2A. After termination, 25 mU/well of Aminopeptidase M was added in 40 mM Tris buffer, pH 7.5, 0.1 mg/ml BSA. The aminopeptidase reaction was incubated at room temperature, 25° C., for 90 minutes. Fluorescence was read as in Example 1.

T3 sequence (P67775 whole entry): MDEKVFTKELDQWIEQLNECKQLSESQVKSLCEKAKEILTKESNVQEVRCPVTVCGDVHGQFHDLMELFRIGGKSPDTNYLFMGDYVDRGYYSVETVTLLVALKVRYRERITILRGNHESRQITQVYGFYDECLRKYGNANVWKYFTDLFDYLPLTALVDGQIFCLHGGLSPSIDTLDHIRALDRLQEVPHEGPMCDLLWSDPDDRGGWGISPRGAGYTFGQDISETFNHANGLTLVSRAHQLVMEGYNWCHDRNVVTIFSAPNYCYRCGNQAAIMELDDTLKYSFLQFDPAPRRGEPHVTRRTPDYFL

| Compound | effect on kinase activity of PKA (fluorescence output with increasing inhibitor concentration) [1] | inhibition of dephosphorylation of bis-PTK5p-R110 by PTP-1B [2] | further results |
| --- | --- | --- | --- |
| CC1CNCCN1S(=O)(=O)c1cccc2cnccc12 (stereo not drawn) [H7, 1-(5-isoquinolinesulfonyl)-2-methylpiperzine] | without effect | – | – |
| Sodium vanadate [Na3VO4] | – | inhibition of PTP 1B enzyme activity | – |
| N#CC(=C(N)Sc1ccccc1N)C(C#N)=C(N)Sc1ccccc1N [U0126, 1,4-diamino-2,3-dicyano-1,4-bis-(2-aminophenylthio)butadiene] | without effect | – | – |
| C=C1[C@@H](O)[C@@H]2O[C@]3(CC[C@H](/C=C/[C@@H](C)[C@@H]4CC(C)=C[C@@]5(O[C@H](C[C@@](C)(O)C(=O)O)CC[C@H]5O)O4)O3)CC[C@H]2O[C@@H]1[C@@H](O)C[C@H](C)[C@H]1O[C@@]2(CCCCO2)CC[C@H]1C [okadaic acid, 9,10-Deepithio-9,10-didehydroacanthifolicin] | – | – | IC50 [3]: < 1 nM; inhibition of dephosphorylation of the substrate by PP2A ([3]; 2 nanograms PP2A (4 munits), 5 uM phosphopeptide substrate, inhibitor zero up to 100 nM, FIG. 7): inhibited |
| CN[C@@H]1C[C@H]2O[C@@](C)([C@@H]1OC)n1c3ccccc3c3c4c(c5c6ccccc6n2c5c31)C(=O)NC4 [staurosporin, (9S-(9α,10,11β,13α)-2,3,10,11,12,13-Hexahydro-10-methoxy-9-methyl-[1-(methylamino)-epoxy-1H,9H-diindolo[1,2,3-gh:3′,2′,1′-1m]pyrrolo{3,4-j]][1,7]benzodiazonin-1-one)] | – | had no effect | – |
